This data set can be described thus: Assay (IV) determination of solubility. The class given is physicochemical. The procedure:
Assay (IV)—Determination of Solubility
The mimylin peptide was dissolved in water at ˜500 nmol/ml and mixed 1:1 with a series of buffers (100 mM glycylglycine pH 3.0, 100 mM glycylglycine pH 4.0, 100 mM glycylglycine pH 5.0, 100 mM bistrispropane pH 6.0, 100 mM bistrispropane pH 6.5, 100 mM bistrispropane pH 7.0, 100 mM bistrispropane pH 7.5, 100 mM bistrispropane pH 8.0).

≈ marks a conversion by molar mass, not a printed value. Numbered stars: 1 amine (or outer) side, 2 acyl side, 3 side chain; on linkers, the order of the positions; unused ones are H or OH. Peptide text beside a SMILES is read from it. * marks the point of attachment. C20 diacid = O=C(O)CCCCCCCCCCCCCCCCCCC(=O)*; γGlu = O=C(O)[C@H](CCC(=O)[*:2])N[*:1]

Broadly, the solubility is the dissolved amount per volume that the medium holds.

With `CC(C)C[C@H](NC(=O)CNC(=O)[C@H](CO)NC(=O)[C@H](C)NC(=O)CC[C@H](NC(=O)CCCCCCCCCCCCCCCCCCC(=O)O)C(=O)O)C(=O)N[C@@H](CO)C(=O)N[C@H](C(=O)N[C@@H](C)C(=O)N[C@H](C(=O)N[C@@H](CC(C)C)C(=O)NCC(=O)N[C@@H](CCCNC(=N)N)C(=O)N[C@@H](CC(C)C)C(=O)N[C@@H](CO)C(=O)N[C@@H](CCC(N)=O)C(=O)N[C@@H](CCC(=O)O)C(=O)N[C@@H](CC(C)C)C(=O)N[C@@H](Cc1cnc[nH]1)C(=O)N[C@@H](CCC(=O)O)C(=O)N[C@@H](CC(C)C)C(=O)N[C@@H](CCC(N)=O)C(=O)N[C@H](C(=O)N[C@@H](Cc1ccc(O)cc1)C(=O)N1CCC[C@H]1C(=O)N[C@@H](CCCNC(=N)N)C(=O)N[C@H](C(=O)N[C@@H](CCC(=O)O)C(=O)N[C@H](C(=O)NCC(=O)N[C@@H](CO)C(=O)N[C@@H](C)C(=O)N[C@H](C(=O)N[C@@H](Cc1ccc(O)cc1)C(N)=O)[C@@H](C)O)[C@@H](C)O)[C@@H](C)O)[C@@H](C)O)C(C)C)[C@@H](C)O` [compound 122, [N-terminal(C20 diacid-gGlu), des1, 4G, 9V, 15Q, 21Q, 23Y, 30S, 31A, 32T, 33Y]mimylin] ({C20 diacid-γGlu}-ASGLSTAVLGRLSQELHELQTYPRTETGSATY-NH2), the Solubility entry is on record as “≧200 μM” (pH 3.0); “≧200 μM” (pH 4.0); “≧200 μM” (pH 6.0); “≧200 μM” (pH 6.5); “≧200 μM” (pH 7.0); “≧200 μM” (pH 7.5). Also, the Solubility entry (pH 8.0) is listed as “≧200 μM”. Under “pH 5.0”, the solubility at 18 h came out at 32 µM (≈ 124 µg/mL).
For `CC(C)C[C@H](NC(=O)CC[C@H](NC(=O)CCCCCCCCCCCCCCCCCCC(=O)O)C(=O)O)C(=O)N[C@@H](CO)C(=O)NCC(=O)N[C@@H](CC(C)C)C(=O)N[C@@H](CO)C(=O)N[C@H](C(=O)N[C@@H](C)C(=O)N[C@H](C(=O)N[C@@H](CC(C)C)C(=O)NCC(=O)N[C@@H](CCCNC(=N)N)C(=O)N[C@@H](CC(C)C)C(=O)N[C@@H](CO)C(=O)N[C@@H](C)C(=O)N[C@@H](CCC(=O)O)C(=O)N[C@@H](CC(C)C)C(=O)N[C@@H](Cc1cnc[nH]1)C(=O)N[C@@H](CCC(=O)O)C(=O)N[C@@H](CC(C)C)C(=O)N[C@@H](CO)C(=O)N[C@H](C(=O)N[C@@H](Cc1ccc(O)cc1)C(=O)N1CCC[C@H]1C(=O)N[C@@H](CCCNC(=N)N)C(=O)N[C@H](C(=O)N[C@@H](CCC(=O)O)C(=O)N[C@H](C(=O)NCC(=O)N[C@@H](CO)C(=O)NCC(=O)N[C@H](C(=O)N[C@@H](Cc1ccc(O)cc1)C(N)=O)[C@@H](C)O)[C@@H](C)O)[C@@H](C)O)[C@@H](C)O)C(C)C)[C@@H](C)O` [compound 123, [N-terminal(C20 diacid-gGlu), des1, 2L, 4G, 9V, 21S, 23Y, 30S, 31G, 32T, 33Y]mimylin] ({C20 diacid-γGlu}-LSGLSTAVLGRLSAELHELSTYPRTETGSGTY-NH2), the Solubility result reads like this: (pH 3.0) “≧200 μM”; (pH 4.0) “≧200 μM”; (pH 6.0) “≧200 μM”; (pH 6.5) “≧200 μM”; (pH 7.0) “≧200 μM”; (pH 7.5) “≧200 μM”. Further, under “pH 8.0”, the Solubility result was “≧200 μM”. Besides, where the note is “pH 5.0”, the solubility at 18 h amounted to 2 µM (≈ 7.64 µg/mL).
As to `CC(C)C[C@H](NC(=O)CNC(=O)[C@H](CO)NC(=O)[C@H](C)NC(=O)CC[C@H](NC(=O)CCCCCCCCCCCCCCCCCCC(=O)O)C(=O)O)C(=O)N[C@@H](CO)C(=O)N[C@H](C(=O)N[C@@H](C)C(=O)N[C@H](C(=O)N[C@@H](CC(C)C)C(=O)NCC(=O)N[C@@H](CCCNC(=N)N)C(=O)N[C@@H](CC(C)C)C(=O)N[C@@H](CO)C(=O)N[C@@H](CCC(N)=O)C(=O)N[C@@H](CCC(=O)O)C(=O)N[C@@H](CC(C)C)C(=O)N[C@@H](Cc1cnc[nH]1)C(=O)N[C@@H](CCC(=O)O)C(=O)N[C@@H](CC(C)C)C(=O)N[C@@H](CCC(N)=O)C(=O)N[C@H](C(=O)N[C@@H](Cc1ccc(O)cc1)C(=O)N1CCC[C@H]1C(=O)N[C@@H](CCCNC(=N)N)C(=O)N[C@H](C(=O)N[C@@H](CCC(=O)O)C(=O)N[C@H](C(=O)NCC(=O)N[C@@H](CO)C(=O)NCC(=O)N[C@H](C(=O)N[C@@H](Cc1ccc(O)cc1)C(N)=O)[C@@H](C)O)[C@@H](C)O)[C@@H](C)O)[C@@H](C)O)[C@@H](C)O)[C@@H](C)O` [compound 124, [N-terminal(C20 diacid-gGlu), des1, 4G, 9T, 15Q, 21Q, 23Y, 30S, 31G, 32T, 33Y]mimylin] ({C20 diacid-γGlu}-ASGLSTATLGRLSQELHELQTYPRTETGSGTY-NH2), the Solubility result is “≧200 μM” (pH 3.0); “≧200 μM” (pH 4.0); “≧200 μM” (pH 6.0); “≧200 μM” (pH 6.5); “≧200 μM” (pH 7.0); “≧200 μM” (pH 7.5). Besides, under “pH 8.0”, the Solubility result is “≧200 μM”. Under “pH 5.0”, this molecule displayed a solubility at 18 h of 61 µM (≈ 237 µg/mL).
For `CC(C)C[C@H](NC(=O)CNC(=O)[C@H](CO)NC(=O)[C@H](C)NC(=O)CC[C@H](NC(=O)CCCCCCCCCCCCCCCCCCC(=O)O)C(=O)O)C(=O)N[C@@H](CO)C(=O)N[C@H](C(=O)N[C@@H](C)C(=O)N[C@H](C(=O)N[C@@H](CC(C)C)C(=O)NCC(=O)N[C@@H](CCCNC(=N)N)C(=O)N[C@@H](CC(C)C)C(=O)N[C@@H](CO)C(=O)N[C@@H](CCC(N)=O)C(=O)N[C@@H](CCC(=O)O)C(=O)N[C@@H](CC(C)C)C(=O)N[C@@H](Cc1cnc[nH]1)C(=O)N[C@@H](CCC(=O)O)C(=O)N[C@@H](CC(C)C)C(=O)N[C@@H](CCC(N)=O)C(=O)N[C@H](C(=O)N[C@@H](Cc1ccc(O)cc1)C(=O)N1CCC[C@H]1C(=O)N1CCC[C@H]1C(=O)N[C@H](C(=O)N[C@@H](CCC(=O)O)C(=O)N[C@H](C(=O)NCC(=O)N[C@@H](CO)C(=O)N[C@@H](CCC(N)=O)C(=O)N[C@H](C(=O)N[C@@H](Cc1ccc(O)cc1)C(N)=O)[C@@H](C)O)[C@@H](C)O)[C@@H](C)O)[C@@H](C)O)C(C)C)[C@@H](C)O` [compound 125, [N-terminal(C20 diacid-gGlu), des1, 4G, 9V, 15Q, 21Q, 23Y, 25P, 30S, 31Q, 32T, 33Y]mimylin] ({C20 diacid-γGlu}-ASGLSTAVLGRLSQELHELQTYPPTETGSQTY-NH2), the Solubility result (pH 3.0) is on record as “≧200 μM”; the Solubility result (pH 5.0) is recorded as “≧200 μM”; the Solubility result (pH 6.0) was “≧200 μM”; the Solubility entry (pH 6.5) is listed as “≧200 μM”; the Solubility entry (pH 7.0) is “≧200 μM”; the Solubility result (pH 7.5) is given as “≧200 μM”. Further, the Solubility entry (pH 8.0) was “≧200 μM”. The solubility at 18 h (pH 4.0) is 28 µM (≈ 109 µg/mL).
`CC(C)C[C@H](NC(=O)CNC(=O)[C@H](CO)NC(=O)[C@H](C)NC(=O)CC[C@H](NC(=O)CCCCCCCCCCCCCCCCCCC(=O)O)C(=O)O)C(=O)N[C@@H](CO)C(=O)N[C@H](C(=O)N[C@@H](CC(C)C)C(=O)N[C@H](C(=O)N[C@@H](CC(C)C)C(=O)NCC(=O)N[C@@H](CCCNC(=N)N)C(=O)N[C@@H](CC(C)C)C(=O)N[C@@H](CO)C(=O)N[C@@H](CCC(N)=O)C(=O)N[C@@H](CCC(=O)O)C(=O)N[C@@H](CC(C)C)C(=O)N[C@@H](Cc1cnc[nH]1)C(=O)N[C@@H](CCC(=O)O)C(=O)N[C@@H](CC(C)C)C(=O)N[C@@H](CCC(N)=O)C(=O)N[C@H](C(=O)N[C@@H](Cc1ccc(O)cc1)C(=O)N1CCC[C@H]1C(=O)N[C@@H](CCCNC(=N)N)C(=O)N[C@H](C(=O)N[C@@H](CCC(=O)O)C(=O)N[C@H](C(=O)NCC(=O)N[C@@H](CO)C(=O)N[C@@H](CCC(N)=O)C(=O)N[C@H](C(=O)N[C@@H](Cc1ccc(O)cc1)C(N)=O)[C@@H](C)O)[C@@H](C)O)[C@@H](C)O)[C@@H](C)O)C(C)C)[C@@H](C)O` [compound 126, [N-terminal(C20 diacid-gGlu), des1, 4G, 8L, 9V, 15Q, 21Q, 23Y, 30S, 31Q, 32T, 33Y]mimylin] ({C20 diacid-γGlu}-ASGLSTLVLGRLSQELHELQTYPRTETGSQTY-NH2): the Solubility entry (pH 3.0) is recorded as “≧200 μM”; the Solubility result (pH 6.5) is on record as “≧200 μM”; the Solubility result (pH 7.0) was “≧200 μM”; the Solubility result (pH 7.5) is listed as “≧200 μM”; the Solubility result (pH 8.0) was “≧200 μM”. In addition, the solubility at 18 h (pH 6.0) is 161 µM (≈ 642 µg/mL).
`CC(C)C[C@H](NC(=O)CC[C@H](NC(=O)CCCCCCCCCCCCCCCCCCC(=O)O)C(=O)O)C(=O)N[C@@H](CO)C(=O)NCC(=O)N[C@@H](CC(C)C)C(=O)N[C@@H](CO)C(=O)N[C@H](C(=O)N[C@@H](C)C(=O)N[C@H](C(=O)N[C@@H](CC(C)C)C(=O)NCC(=O)N[C@@H](CCCNC(=N)N)C(=O)N[C@@H](CC(C)C)C(=O)N[C@@H](CO)C(=O)N[C@@H](CCC(N)=O)C(=O)N[C@@H](CCC(=O)O)C(=O)N[C@@H](CC(C)C)C(=O)N[C@@H](Cc1cnc[nH]1)C(=O)N[C@@H](CCC(=O)O)C(=O)N[C@@H](CC(C)C)C(=O)N[C@@H](CCC(N)=O)C(=O)N[C@H](C(=O)N[C@@H](Cc1ccc(O)cc1)C(=O)N1CCC[C@H]1C(=O)N[C@@H](CCCNC(=N)N)C(=O)N[C@H](C(=O)N[C@@H](CCC(=O)O)C(=O)N[C@H](C(=O)NCC(=O)N[C@@H](CO)C(=O)N[C@@H](CCC(N)=O)C(=O)N[C@H](C(=O)N[C@@H](Cc1ccc(O)cc1)C(N)=O)[C@@H](C)O)[C@@H](C)O)[C@@H](C)O)[C@@H](C)O)C(C)C)[C@@H](C)O` [compound 127, [N-terminal(C20 diacid-gGlu), des1, 2L, 4G, 9V, 15Q, 21Q, 23Y, 30S, 31Q, 32T, 33Y]mimylin] ({C20 diacid-γGlu}-LSGLSTAVLGRLSQELHELQTYPRTETGSQTY-NH2): the Solubility entry is given as “≧200 μM” (pH 3.0); “≧200 μM” (pH 6.0); “≧200 μM” (pH 6.5); “≧200 μM” (pH 7.0); “≧200 μM” (pH 7.5); “≧200 μM” (pH 8.0). This molecule yielded a solubility at 18 h (pH 4.0) of 31 µM (≈ 124 µg/mL).
